# Where “and” joins values, the source holds several entries; their conditions need not be identical. Equal values may be shown once. Numbers after ± are expanded uncertainties.
# Conditions: Liquid; for mass density: Vibrating tube method; for electrical conductivity: electrochemical impedance spectroscopy
compound,measurement,setting,value
CCCCC[P+](CC)(CC)CC.O=S(=O)([N-]S(=O)(=O)C(F)(F)F)C(F)(F)F,viscosity,"273.15 K, 100 kPa, Concentric cylinders viscometry",391.1 ± 13 mPa·s
same,viscosity,"273.15 K, 100 kPa, Falling or rolling sphere viscometry",396.2 ± 28 mPa·s and 396 ± 28 mPa·s
same,mass density,"273.15 K, 100 kPa",1323.74 ± 1.9 kg/m3 and 1324 ± 1.9 kg/m3 and 1323.6 ± 1.3 kg/m3
same,electrical conductivity,"273.15 K, 101.33 kPa",0.0399 S/m and 0.04 S/m
same,viscosity,"278.15 K, 100 kPa, Concentric cylinders viscometry",275.6 ± 8.5 mPa·s
same,viscosity,"278.15 K, 100 kPa, Falling or rolling sphere viscometry",278.3 ± 16 mPa·s and 278.2 ± 16 mPa·s
same,mass density,"278.15 K, 100 kPa",1319.92 ± 1.9 kg/m3 and 1319.6 ± 1.9 kg/m3 and 1319.31 ± 1.3 kg/m3
same,electrical conductivity,"278.15 K, 101.33 kPa",0.0556 S/m and 0.0557 S/m
same,electrical conductivity,"283.14 K, 149300 kPa, Frequency=0 MHz",0.0123 ± 0.00025 S/m
same,electrical conductivity,"283.14 K, 174300 kPa, Frequency=0 MHz",0.00927 ± 0.00019 S/m
same,viscosity,"283.15 K, 100 kPa, Concentric cylinders viscometry",199.6 ± 5.6 mPa·s
same,viscosity,"283.15 K, 100 kPa, Falling or rolling sphere viscometry",201.3 ± 9.7 mPa·s and 200.4 ± 9.7 mPa·s
same,electrical conductivity,"283.15 K, 100 kPa, Frequency=0 MHz",0.076 ± 0.0015 S/m
same,mass density,"283.15 K, 100 kPa",1315.3 ± 1.9 kg/m3 [middle of 4 runs]
same,electrical conductivity,"283.15 K, 101.33 kPa",0.0756 S/m and 0.076 S/m and 0.0755 S/m
same,electrical conductivity,"283.15 K, 1200 kPa, Frequency=0 MHz",0.0749 ± 0.0015 S/m
same,electrical conductivity,"283.15 K, 3100 kPa, Frequency=0 MHz",0.0728 ± 0.0015 S/m
same,electrical conductivity,"283.15 K, 5100 kPa, Frequency=0 MHz",0.0709 ± 0.0014 S/m
same,viscosity,"283.15 K, 10600 kPa, Falling or rolling sphere viscometry",228.6 ± 12 mPa·s
same,electrical conductivity,"283.15 K, 15400 kPa, Frequency=0 MHz",0.0618 ± 0.0012 S/m
same,electrical conductivity,"283.15 K, 20500 kPa, Frequency=0 MHz",0.0578 ± 0.0012 S/m
same,viscosity,"283.15 K, 20600 kPa, Falling or rolling sphere viscometry",263 ± 15 mPa·s
same,electrical conductivity,"283.15 K, 25600 kPa, Frequency=0 MHz",0.054 ± 0.0011 S/m
same,viscosity,"283.15 K, 30300 kPa, Falling or rolling sphere viscometry",302.4 ± 19 mPa·s
same,electrical conductivity,"283.15 K, 30600 kPa, Frequency=0 MHz",0.0507 ± 0.001 S/m
same,viscosity,"283.15 K, 40800 kPa, Falling or rolling sphere viscometry",352.7 ± 24 mPa·s
same,electrical conductivity,"283.15 K, 42000 kPa, Frequency=0 MHz",0.0437 ± 0.00088 S/m
same,electrical conductivity,"283.15 K, 50300 kPa, Frequency=0 MHz",0.0394 ± 0.00079 S/m
same,viscosity,"283.15 K, 50700 kPa, Falling or rolling sphere viscometry",398.9 ± 28 mPa·s
same,viscosity,"283.15 K, 60900 kPa, Falling or rolling sphere viscometry",459.1 ± 35 mPa·s
same,viscosity,"283.15 K, 71400 kPa, Falling or rolling sphere viscometry",527.1 ± 42 mPa·s
same,electrical conductivity,"283.15 K, 74900 kPa, Frequency=0 MHz",0.0294 ± 0.00059 S/m
same,viscosity,"283.15 K, 80400 kPa, Falling or rolling sphere viscometry",599.8 ± 51 mPa·s
same,viscosity,"283.15 K, 88200 kPa, Falling or rolling sphere viscometry",667.7 ± 59 mPa·s
same,viscosity,"283.15 K, 94700 kPa, Falling or rolling sphere viscometry",740.8 ± 68 mPa·s
same,electrical conductivity,"283.15 K, 99800 kPa, Frequency=0 MHz",0.0219 ± 0.00044 S/m
same,electrical conductivity,"283.15 K, 126100 kPa, Frequency=0 MHz",0.016 ± 0.00032 S/m
same,electrical conductivity,"283.16 K, 2100 kPa, Frequency=0 MHz",0.0741 ± 0.0015 S/m
same,electrical conductivity,"283.16 K, 10300 kPa, Frequency=0 MHz",0.0661 ± 0.0013 S/m
same,electrical conductivity,"283.16 K, 199900 kPa, Frequency=0 MHz",0.00703 ± 0.00014 S/m
same,viscosity,"288.15 K, 100 kPa, Concentric cylinders viscometry",148 ± 3.9 mPa·s
same,mass density,"288.15 K, 100 kPa",1311.35 ± 1.9 kg/m3 and 1311 ± 1.9 kg/m3 and 1310.72 ± 1.3 kg/m3
same,electrical conductivity,"288.16 K, 101.33 kPa",0.1 S/m
same,viscosity,"293.15 K, 100 kPa, Concentric cylinders viscometry",111.8 ± 2.7 mPa·s and 112.2 ± 2.8 mPa·s and 112 ± 2.7 mPa·s
same,viscosity,"293.15 K, 100 kPa, Falling or rolling sphere viscometry",112.7 ± 3.8 mPa·s
same,mass density,"293.15 K, 100 kPa",1306.8 ± 1.8 kg/m3 [middle of 4 runs]
same,electrical conductivity,"293.15 K, 101.33 kPa",0.13 S/m
same,electrical conductivity,"298.14 K, 176500 kPa, Frequency=0 MHz",0.0255 ± 0.00051 S/m
same,viscosity,"298.15 K, 100 kPa, Concentric cylinders viscometry",86.33 ± 2 mPa·s
same,viscosity,"298.15 K, 100 kPa, Falling or rolling sphere viscometry",87.05 ± 3.3 mPa·s and 87.04 ± 3.3 mPa·s and 87.45 ± 3.4 mPa·s
same,electrical conductivity,"298.15 K, 100 kPa, Frequency=0 MHz",0.165 ± 0.0033 S/m
same,mass density,"298.15 K, 100 kPa",1302.45 ± 1.8 kg/m3 [middle of 6 runs]
same,electrical conductivity,"298.15 K, 101.33 kPa",0.166 S/m and 0.165 S/m
same,viscosity,"298.15 K, 600 kPa, Falling or rolling sphere viscometry",86.57 ± 2.4 mPa·s
same,mass density,"298.15 K, 1000 kPa",1302.82 ± 1.3 kg/m3
same,electrical conductivity,"298.15 K, 3400 kPa, Frequency=0 MHz",0.159 ± 0.0032 S/m
same,mass density,"298.15 K, 5000 kPa",1305.75 ± 1.3 kg/m3
same,electrical conductivity,"298.15 K, 5100 kPa, Frequency=0 MHz",0.155 ± 0.0031 S/m
same,electrical conductivity,"298.15 K, 9800 kPa, Frequency=0 MHz",0.146 ± 0.0029 S/m
same,mass density,"298.15 K, 10000 kPa",1309.28 ± 1.3 kg/m3
same,viscosity,"298.15 K, 10500 kPa, Falling or rolling sphere viscometry",99.67 ± 3.1 mPa·s
same,electrical conductivity,"298.15 K, 15000 kPa, Frequency=0 MHz",0.138 ± 0.0028 S/m
same,mass density,"298.15 K, 15000 kPa",1312.76 ± 1.4 kg/m3
same,mass density,"298.15 K, 20000 kPa",1316.13 ± 1.4 kg/m3
same,viscosity,"298.15 K, 20500 kPa, Falling or rolling sphere viscometry",114.4 ± 3.9 mPa·s
same,electrical conductivity,"298.15 K, 20900 kPa, Frequency=0 MHz",0.129 ± 0.0026 S/m
same,mass density,"298.15 K, 25000 kPa",1319.42 ± 1.4 kg/m3
same,electrical conductivity,"298.15 K, 25800 kPa, Frequency=0 MHz",0.122 ± 0.0024 S/m
same,mass density,"298.15 K, 30000 kPa",1322.62 ± 1.4 kg/m3
same,viscosity,"298.15 K, 30600 kPa, Falling or rolling sphere viscometry",130.4 ± 4.9 mPa·s
same,electrical conductivity,"298.15 K, 31200 kPa, Frequency=0 MHz",0.114 ± 0.0023 S/m
same,mass density,"298.15 K, 35000 kPa",1325.82 ± 1.5 kg/m3
same,mass density,"298.15 K, 40000 kPa",1328.9 ± 1.5 kg/m3
same,viscosity,"298.15 K, 40500 kPa, Falling or rolling sphere viscometry",148 ± 6 mPa·s
same,electrical conductivity,"298.15 K, 41000 kPa, Frequency=0 MHz",0.102 ± 0.002 S/m
same,mass density,"298.15 K, 45000 kPa",1331.96 ± 1.6 kg/m3
same,mass density,"298.15 K, 50010 kPa",1334.83 ± 1.6 kg/m3
same,viscosity,"298.15 K, 50500 kPa, Falling or rolling sphere viscometry",167.4 ± 7.3 mPa·s
same,electrical conductivity,"298.15 K, 51100 kPa, Frequency=0 MHz",0.0914 ± 0.0018 S/m
same,electrical conductivity,"298.15 K, 56700 kPa, Frequency=0 MHz",0.0859 ± 0.0017 S/m

# From the NIST ThermoML archive (doi:10.1021/acs.jced.8b00011)
